# In patent US7432275B2, “Carboxylic acid, phosphate or phosphonate substituted quinazolin-4-ylamine analogues as capsaicin receptor modulators” (Neurogen Corporation, priority 2002, dated 2008):
# Target: T1, human capsaicin receptor (Homo sapiens, UniProt Q8NER1)
# Assay: Capsaicin receptor binding assay ([3H]RTX competition, membranes of VR1-transfected HEK293 cells)
# Conditions: not given
# Text: This Example illustrates the preparation of VR1-transfected cells and membrane preparations for use in binding assays (Example 5) and functional assays (Example 6).
# This Example illustrates a representative assay of capsaicin receptor binding that may be used to determine the binding affinity of compounds for the capsaicin (VR1) receptor.
# Binding studies with [^3H] […] 262:883-888.
# T1 sequence (Q8NER1 whole entry): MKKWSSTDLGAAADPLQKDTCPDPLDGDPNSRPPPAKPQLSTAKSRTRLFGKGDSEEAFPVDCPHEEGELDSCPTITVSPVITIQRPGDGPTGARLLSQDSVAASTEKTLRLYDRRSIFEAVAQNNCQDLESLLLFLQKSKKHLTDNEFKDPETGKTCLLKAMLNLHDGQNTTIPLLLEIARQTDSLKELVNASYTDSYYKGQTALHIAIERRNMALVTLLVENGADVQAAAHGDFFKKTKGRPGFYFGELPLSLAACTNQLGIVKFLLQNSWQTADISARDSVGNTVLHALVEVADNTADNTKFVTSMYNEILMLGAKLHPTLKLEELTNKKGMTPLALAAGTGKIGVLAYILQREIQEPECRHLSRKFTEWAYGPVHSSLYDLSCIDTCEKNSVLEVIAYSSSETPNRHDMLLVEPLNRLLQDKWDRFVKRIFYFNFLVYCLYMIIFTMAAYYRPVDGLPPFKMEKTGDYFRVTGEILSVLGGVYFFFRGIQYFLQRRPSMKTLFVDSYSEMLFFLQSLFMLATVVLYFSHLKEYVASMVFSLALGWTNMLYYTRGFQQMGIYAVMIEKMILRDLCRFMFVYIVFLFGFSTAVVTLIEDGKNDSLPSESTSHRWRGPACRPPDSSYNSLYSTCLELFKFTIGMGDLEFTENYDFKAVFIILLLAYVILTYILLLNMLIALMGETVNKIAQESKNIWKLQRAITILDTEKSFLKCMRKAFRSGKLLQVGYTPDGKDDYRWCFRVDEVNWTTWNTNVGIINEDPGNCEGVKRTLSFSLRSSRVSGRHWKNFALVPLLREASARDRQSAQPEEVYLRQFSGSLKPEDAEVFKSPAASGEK
row,Structure (SMILES),Ki [nM]
1,"CCOP(=O)(Cc1nc(Nc2ccc(C(F)(F)F)cc2)c2ccc(-c3ncccc3C)cc2n1)OCC [Compound 5, [7-(3-Methyl-pyridin-2-yl)-4-(4-trifluoromethyl-phenylamino)-quinazolin-2-ylmethyl]-phosphonicacid diethyl ester]",< 1000
2,"CCOP(=O)(Cc1nc(Nc2ccc(C(C)(C)C)cc2)c2ccc(-c3ncccc3C)cc2n1)OCC [Compound 16, [4-(4-tert-Butyl-phenylamino)-7-(3-methyl-pyridin-2-yl)-quinazolin-2-ylmethyl]-phosphonic acid diethylester]",< 1000
3,"CCOP(=O)(Cc1nc(Nc2ccc(C(C)(C)C)cc2)c2ccc(-c3ncccc3C(F)(F)F)cc2n1)OCC [Compound 17, [4-(4-tert-Butyl-phenylamino)-7-(3-trifluoromethyl-pyridin-2-yl)-quinazolin-2-ylmethyl]-phosphonicacid diethyl ester]",< 1000
4,"CCOP(=O)(O)Cc1nc(Nc2ccc(C(C)(C)C)cc2)c2ccc(-c3ncccc3C(F)(F)F)cc2n1 [Compound 18, [4-(4-tert-Butyl-phenylamino)-7-(3-trifluoromethyl-pyridin-2-yl)-quinazolin-2-ylmethyl]-phosphonicacid monoethyl ester]",< 1000

# Same assay, conditions: determined as described in Example 5; read-out: Ki
row,Structure (SMILES),Ki [nM]
1,"O=C(O)CNc1nc(Nc2ccc(C(F)(F)F)cc2)c2ccc(-c3ncccc3C(F)(F)F)cc2n1 [Compound 3, [4-(4-Trifluoromethyl-phenylamino)-7-(3-trifluoromethyl-pyridin-2-yl)-quinazolin-2-ylamino]-acetic acid]",< 1000
2,"CC(C)(C)c1ccc(Nc2nc(COP(=O)(OCc3ccccc3)OCc3ccccc3)nc3cc(-c4ncccc4C(F)(F)F)ccc23)cc1 [Compound 6, Phosphoric acid dibenzyl ester 4-(4-tert-butyl-phenylamino)-7-(3-trifluoromethyl-pyridin-2-yl)-quinazolin-2-ylmethyl ester]",< 1000
3,"CC(C)(C)c1ccc(Nc2nc(COP(=O)(O)O)nc3cc(-c4ncccc4C(F)(F)F)ccc23)cc1 [Compound 7, Phosphoric acid mono-[4-(4-tert-butyl-phenylamino)-7-(3-trifluoromethyl-pyridin-2-yl)-quinazolin-2-ylmethyl] ester]",< 1000
4,"O=P(OCc1ccccc1)(OCc1ccccc1)OCc1nc(Nc2ccc(C(F)(F)F)cc2)c2ccc(-c3ncccc3C(F)(F)F)cc2n1 [Compound 8, Phosphoric acid dibenzyl ester 4-(4-trifluoromethyl-phenylamino)-7-(3-trifluoromethyl-pyridin-2-yl)-quinazolin-2-ylmethyl ester]",< 1000
5,"CC(C)(C)c1ccc(Nc2ncnc3cc(-c4ncccc4C(F)(F)F)cnc23)cc1OCC(=O)O [Compound 13, {2-tert-Butyl-5-[7-(3-trifluoromethyl-pyridin-2-yl)-pyrido[3,2-d]pyrimidin-4-ylamino]-phenoxy}-acetic acid]",< 1000
6,"Cc1nc(Nc2ccc(C(C)(C)C(=O)O)cc2)c2ccc(-c3ncccc3C)nc2n1 [Compound 19, 2-Methyl-2-{4-[2-methyl-7-(3-methyl-pyridin-2-yl)-pyrido[2,3-d]pyrimidin-4-ylamino]-phenyl}-propionic acid]",< 1000
7,"CC(C)(C)c1ccc(Nc2ncnc3cc(-c4ncccc4C(F)(F)F)ccc23)cc1OCCN1CCC[C@H]1C(=O)O [Compound 22, (S)-1-(2-{2-tert-Butyl-5-[7-(3-trifluoromethyl-pyridin-2-yl)-quinazolin-4-ylamino]-phenoxy}-ethyl)-pyrrolidine-2-carboxylic acid]",< 1000
8,"CC(C)(C)c1ccc(Nc2ncnc3cc(-c4ncccc4C(F)(F)F)ccc23)cc1OCCOP(=O)(O)O [Compound 31, Phosphoric acid mono-(2-{2-tert-butyl-5-[7-(3-trifluoromethyl-pyridin-2-yl)-quinazolin-4-ylamino]-phenoxy}-ethyl) ester]",< 1000
9,"CC(C)(C)c1ccc(Nc2nc(CP(=O)(O)O)nc3cc(-c4ncccc4C(F)(F)F)ccc23)cc1 [Compound 32, [4-(4-tert-Butyl-phenylamino)-7-(3-trifluoromethyl-pyridin-2-yl)-quinazolin-2-ylmethyl]-phosphonicacid]",< 1000
10,"CC(C)(C)c1ccc(Nc2nc(N3CCC(C(=O)O)CC3)nc3nc(-c4ncccc4C(F)(F)F)ccc23)cc1 [Compound 44, 1-[4-(4-tert-Butyl-phenylamino)-7-(3-trifluoromethyl-pyridin-2-yl)-pyrido[2,3-d]pyrimidin-2-yl]-piperidine-4-carboxylic acid]",< 1000
11,"COCc1nc2nc(-c3ncccc3C(F)(F)F)ccc2c(Nc2ccc(C(F)(F)F)cc2)c1C(=O)O [Compound 45, 2-Methoxymethyl-4-(4-trifluoromethyl-phenylamino)-7-(3-trifluoromethyl-pyridin-2-yl)-[1,8]naphthyridine-3-carboxylic acid]",< 1000

# Target: T1, human capsaicin receptor
# Assay: Calcium mobilization assay
# Type: cell-based
# Conditions: capsaicin used as positive control; read-out: approximate EC90 concentration
# Protocol: Cells transfected with expression plasmids (as described in Example 4) and thereby expressing human capsaicin receptor are seeded and grown to 70-90% confluency in FALCON black-walled, clear-bottomed 96-well plates (#3904, BECTON-DICKINSON, Franklin Lakes, N.J.). […] After the incubation, the dye is emptied from the plates, and the cells are washed once with KRH buffer, and resuspended in KRH buffer.
# To measure the ability of a test compound to agonize or antagonize a calcium mobilization response in cells expressing capsaicin receptors to capsaicin or other vanilloid agonist, the EC50 of the agonist capsaicin is first determined. An additional 20 μl of KRH buffer and 1 μl DMSO is added to each well of cells, prepared as described above. 100 μl capsaicin in KRH buffer is automatically transferred by the FLIPR instrument to each well. Capsaicin-induced calcium mobilization is monitored using either FLUOROSKAN ASCENT (Labsystems; Franklin, Mass.) or FLIPR (fluorometric imaging plate reader system; Molecular Devices, Sunnyvale, Calif.) instruments. […] In this equation, y is the maximum fluorescence signal, x is the concentration of the agonist or antagonist (in this case, capsaicin), a is the Emax, b corresponds to the EC50 value and c is the Hill coefficient. […]
row,Structure (SMILES),EC90 [nM]
1,COc1cc(CNC(=O)CCCC/C=C/C(C)C)ccc1O [capsaicin],~100
